In the supplement of paper PMC8967900:

Columns and labels:
Assay in all cases: selective drug sensitivity score (sDSS, relative to normal bone marrow) (sDSS (score)); higher = more potent and effective on the cell line relative to normal bone marrow cells
Details in all cases: 72 h
[1] = tested on: ALL-PO
[2] = tested on: P30-OHKUBO
[3] = tested on: DND-41
[4] = tested on: REH
[5] = tested on: RCH-ACV
[6] = tested on: CCRF-CEM
[7] = tested on: COG-LL-317
[8] = tested on: MN-60
[9] = tested on: MOLT-16
[10] = tested on: JURKAT
[11] = tested on: TANOUE
[12] = tested on: SUP-B15
[13] = tested on: KOPN-8
[14] = tested on: COG-LL-319h
[15] = tested on: HPB-ALL
[16] = tested on: COG-LL-394h
[17] = tested on: 380
[18] = tested on: MOLT-4
[19] = tested on: NALL-1
[20] = tested on: PEER
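Note: ALL cell lines in 384-well plates, five doses spanning 10,000-fold, each plate scaled between vehicle and 100 µmol/L benzalkonium chloride controls, sDSS an adapted area-under-curve metric.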

| Compound | selective drug sensitivity score [1] | selective drug sensitivity score [2] | selective drug sensitivity score [3] | selective drug sensitivity score [4] | selective drug sensitivity score [5] | selective drug sensitivity score [6] | selective drug sensitivity score [7] | selective drug sensitivity score [8] | selective drug sensitivity score [9] | selective drug sensitivity score [10] | selective drug sensitivity score [11] | selective drug sensitivity score [12] | selective drug sensitivity score [13] | selective drug sensitivity score [14] | selective drug sensitivity score [15] | selective drug sensitivity score [16] | selective drug sensitivity score [17] | selective drug sensitivity score [18] | selective drug sensitivity score [19] | selective drug sensitivity score [20] |
| --- | --- | --- | --- | --- | --- | --- | --- | --- | --- | --- | --- | --- | --- | --- | --- | --- | --- | --- | --- | --- |
| CCCCOc1nc(N)c2c(n1)N(Cc1cccc(CN3CCCC3)c1)CC(=O)N2 [Vesatolimod] (top concentration 10000 nM) | -3.52 | -3.52 | -2.12 | -3.52 | -3.52 | -3.52 | -2.92 | -2.32 | -3.52 | -3.42 | -3.32 | -3.52 | -3.22 | 0.38 | -3.52 | -3.32 | -3.52 | -3.52 | -3.52 | -3.52 |
| CCc1c(C(=O)C(N)=O)c2c(OCC(=O)O)cccc2n1Cc1ccccc1 [Varespladib] (top concentration 10000 nM) | -0.84 | -0.84 | -0.84 | -0.84 | -0.84 | -0.84 | -0.74 | -0.84 | 1.76 | -0.74 | -0.84 | -0.84 | -0.84 | -0.84 | -0.84 | -0.84 | -0.84 | -0.84 | -0.84 | -0.84 |
| CCCCCCCCc1ccc(CCC(N)(CO)CO)cc1 [Fingolimod] (top concentration 10000 nM) | 2.28 | 1.38 | 1.28 | -1.52 | 0.98 | 0.98 | 1.08 | 1.28 | 5.38 | -1.12 | 0.78 | 7.48 | 3.18 | 0.28 | 1.68 | 1.68 | -1.12 | 1.78 | 6.18 | 1.78 |
| Clc1ccccc1C(c1ccccc1)(c1ccccc1)n1cccn1 [TRAM-34] (top concentration 1000 nM) | -0.08 | 1.12 | -0.08 | 0.22 | -0.08 | -0.08 | -0.08 | -0.08 | -0.08 | -0.08 | -0.08 | -0.08 | -0.08 | -0.08 | -0.08 | -0.08 | -0.08 | -0.08 | -0.08 | -0.08 |
| CCS(=O)(=O)Nc1ccc(Oc2ccc(F)cc2F)c(-c2cn(C)c(=O)c3[nH]ccc23)c1 [Mivebresib] (top concentration 10000 nM) | 6.1 | 15.3 | 1.5 | -1.8 | 18.1 | 1.5 | 11.5 | 8.2 | 13.1 | 3.55e-15 | -12 | 7.8 | 16.6 | 7.7 | 1.9 | 1.6 | -13 | -3.5 | 0.6 | 1.1 |
| Cc1nc(=O)c2cc(CN(C)c3ccc(C(=O)N[C@@H](CCC(=O)O)C(=O)O)s3)ccc2[nH]1 [Raltitrexed] (top concentration 1000 nM) | 23 | 25.3 | 16.5 | 24.3 | 29.2 | 23.3 | 19.5 | 8.02 | 25.3 | 14.6 | -0.58 | 28 | 28.4 | 25.7 | 13.4 | 2.12 | 20.7 | 17.3 | 12.8 | 13 |
| COc1cc2c(Nc3ccc(Cl)c(Cl)c3F)ncnc2cc1OC[C@@H]1C[C@@H]2CN(C)C[C@@H]2C1 [Tesevatinib] (top concentration 1000 nM) | 2.34 | 0.94 | 1.44 | -1.36 | 0.64 | 1.34 | 0.04 | 0.24 | 1.74 | -0.16 | -1.36 | -1.36 | -0.86 | -1.36 | 0.64 | -0.36 | -0.96 | -0.86 | -0.06 | 1.84 |
| Cc1ccc(-c2cc(C(F)(F)F)nn2-c2ccc(S(N)(=O)=O)cc2)cc1 [Celecoxib] (top concentration 10000 nM) | 2.84 | -0.06 | 1.24 | -0.06 | 0.64 | -0.06 | -0.06 | -0.06 | 0.34 | 0.14 | -0.06 | 2.44 | 0.74 | 0.04 | -0.06 | -0.06 | 7.74 | 0.14 | -0.06 | 0.94 |
| Cc1ccc(NS(=O)(=O)c2cccc(C#N)c2)c2[nH]cc(C#N)c12 [E7820] (top concentration 50000 nM) | 4.92 | 17.3 | 9.82 | 13.7 | 23.2 | 9.12 | 21.9 | -1.88 | 22.6 | 21.7 | -6.28 | 8.72 | 19.8 | 18 | 11 | -1.58 | 30.8 | 1.82 | 6.42 | 17.8 |
| O=C(Nc1cnn2ccc(N3CCC[C@@H]3c3cc(F)ccc3F)nc12)N1CC[C@H](O)C1 [Larotrectinib] (top concentration 1000 nM) | -0.62 | -0.52 | -0.62 | -0.62 | 1.48 | -0.62 | -0.62 | -0.62 | -0.62 | -0.62 | -0.62 | 0.08 | -0.62 | 3.78 | 4.18 | -0.62 | -0.62 | -0.62 | -0.62 | -0.62 |
| O=C1CCC(N2C(=O)c3ccccc3C2=O)C(=O)N1 (stereo not given) [Thalidomide] (top concentration 10000 nM) | -0.14 | -0.14 | -0.14 | -0.04 | -0.14 | -0.14 | -0.14 | -0.14 | -0.14 | -0.14 | -0.14 | -0.14 | -0.14 | -0.14 | -0.14 | -0.14 | -0.14 | -0.14 | -0.14 | -0.14 |
| C[C@]1(O)C[C@@H](c2nc(-c3ccc4ccc(-c5ccccc5)nc4c3)c3c(N)nccn32)C1 [Linsitinib] (top concentration 10000 nM) | 3.92 | -0.68 | 4.82 | -3.18 | 0.72 | -3.18 | -3.18 | -3.18 | -3.18 | -3.18 | -3.18 | -3.18 | -0.38 | -1.78 | 2.22 | -0.68 | 1.72 | -2.58 | -0.08 | -0.98 |
| Cc1ccc(-n2nc(C(C)(C)C)cc2NC(=O)Nc2ccc(OCCN3CCOCC3)c3ccccc23)cc1 [Doramapimod] (top concentration 10000 nM) | 4.16 | 4.26 | -0.24 | 5.36 | 4.56 | -0.24 | 10.9 | 0.66 | 4.16 | 1.16 | 1.16 | 5.16 | 3.76 | 1.06 | 2.76 | 2.16 | -0.24 | 2.46 | -0.24 | 1.86 |
| c1cn2cc(-c3ccc4cn[nH]c4c3)nc(Nc3ccc(N4CCOCC4)cc3)c2n1 [Entospletinib] (top concentration 5000 nM) | 7.26 | 6.96 | -0.64 | -0.64 | 12.3 | -0.64 | -0.64 | -0.64 | -0.64 | -0.64 | -0.64 | 1.36 | 1.46 | -0.64 | -0.64 | -0.64 | -0.64 | -0.64 | -0.64 | -0.64 |
| O=C(Nc1cc(Cl)cc2c1[nH]c1cnccc12)c1cccnc1 [PS-1145] (top concentration 25000 nM) | -0.36 | 1.94 | -0.46 | 1.94 | 3.04 | -0.46 | -0.46 | -0.46 | -0.16 | -0.36 | -0.46 | -0.46 | -0.46 | -0.46 | -0.46 | -0.46 | -0.46 | -0.46 | 9.14 | -0.46 |
| CC[C@@H]1[C@H](F)C(=O)N[C@@H]1COc1nccc2cc(C(N)=O)c(OC)cc12 (top concentration 10000 nM) | 2.08 | 2.38 | -1.32 | -1.32 | 2.58 | 1.58 | 1.28 | 5.88 | 0.98 | 0.48 | -0.22 | 0.98 | 1.78 | 2.88 | -1.32 | 0.38 | -1.32 | 2.48 | -1.32 | 1.08 |
| COc1cc(Nc2c(C#N)cnc3cc(OCCCN4CCN(C)CC4)c(OC)cc23)c(Cl)cc1Cl [Bosutinib] (top concentration 10000 nM) | 0.36 | 3.56 | 0.06 | -1.94 | 5.76 | -0.74 | -2.64 | -3.24 | 0.16 | -0.74 | -7.74 | 16 | 4.56 | 1.66 | -2.64 | 1.16 | -0.64 | -0.64 | -0.94 | 9.16 |
| CN1CCN(C2CCN(C(=O)Nc3cc(Oc4ccc(NC(=O)C5(C(=O)Nc6ccc(F)cc6)CC5)c(F)c4)ccn3)CC2)CC1 [Golvatinib] (top concentration 2500 nM) | 3.16 | 0.56 | -0.04 | 2.46 | 4.26 | -0.14 | -0.14 | -0.14 | -0.14 | -0.14 | -0.14 | 3.56 | -0.14 | -0.14 | 6.76 | 2.26 | -0.14 | -0.14 | -0.14 | 2.46 |
| CCOc1ccn(-c2ccc(F)cc2)c(=O)c1C(=O)Nc1ccc(Oc2ccnc(N)c2Cl)c(F)c1 (top concentration 2500 nM) | 2.7 | 1.5 | 0 | 1.3 | 1 | 0.6 | 0 | 0 | 0 | 0 | 0 | 3.5 | 0 | 0 | 0 | 0.8 | 0 | 0.1 | 0 | 3.9 |
